Data published in PMC4291083, “Ex Vivo Characterization of a Novel Iodine-123-Labelled Aminomethylchroman as a Potential Agonist Ligand for SPECT Imaging of Dopamine D2/3 Receptors” (International Journal of Molecular Imaging, 2014).

Tested on: D2/3 receptors
Assay: Blocking studies using ex vivo storage phosphor imaging (haloperidol)
Assay type: in vivo
Details: 2 h p.i., rats
Description: To determine whether [^123I]-1 binds selectively to D2/3 receptors in vivo, in the following experiments 5 rats received an i.v. injection of the dopamine receptor blocker haloperidol (1 mg/kg) 5 min prior to the injection with [^123I]-1 (approximately 37 MBq). A control group (n = 5) was injected with 0.4 mL buffer 5 min prior to the injection with the radiopharmaceutical. Two hours after the injection of [^123I]-1 (this time point was based on the results of the classic biodistribution study; see Results) the rats were sacrificed by bleeding through heart puncture under O2/CO2 anaesthesia. The brains were quickly removed and immediately frozen on dry ice. Then the frozen brain was sliced horizontally in 50 μm thick slices. Storage phosphor imaging was done as previously described. In contrast to previous studies, we used a Typhoon FLA 7000 Phosphor imager (GE Healthcare Life Sciences, Uppsala, Sweden) and Hypercassette Amersham Biosciences imaging plates which were scanned at 25 μm pixel size. In this blocking experiment, storage phosphor imaging was used because this offers the opportunity to look into binding in ventral as well as dorsal parts of the striatum. In ventral parts, the expression of dopamine D3 receptors is higher than in more dorsal parts.

uptake in white matter: high uptake in white matter
Compound: Oc1ccc2c(c1)O[C@@H](CNCc1ccc([123I])cc1)CC2 [[^123I]-1]
specific striatal binding (haloperidol 1 mg/kg i.v. 5 min prior vs control): no specific striatal binding was observed | specific binding in other brain areas including the globus pallidus: no specific binding
